Data on three compounds can be found in patent US11788112B2, “L-2-hydroxyglutarate and stress induced metabolism” (Memorial Sloan-Kettering Cancer Center, priority 2014, dated 2023).

The target of assay [1] is T1, purified human KDM4C (Homo sapiens, UniProt Q9H3R0).
T1 construct: GST; purchased BPS Bioscience
T1 sequence (Q9H3R0 1-1056): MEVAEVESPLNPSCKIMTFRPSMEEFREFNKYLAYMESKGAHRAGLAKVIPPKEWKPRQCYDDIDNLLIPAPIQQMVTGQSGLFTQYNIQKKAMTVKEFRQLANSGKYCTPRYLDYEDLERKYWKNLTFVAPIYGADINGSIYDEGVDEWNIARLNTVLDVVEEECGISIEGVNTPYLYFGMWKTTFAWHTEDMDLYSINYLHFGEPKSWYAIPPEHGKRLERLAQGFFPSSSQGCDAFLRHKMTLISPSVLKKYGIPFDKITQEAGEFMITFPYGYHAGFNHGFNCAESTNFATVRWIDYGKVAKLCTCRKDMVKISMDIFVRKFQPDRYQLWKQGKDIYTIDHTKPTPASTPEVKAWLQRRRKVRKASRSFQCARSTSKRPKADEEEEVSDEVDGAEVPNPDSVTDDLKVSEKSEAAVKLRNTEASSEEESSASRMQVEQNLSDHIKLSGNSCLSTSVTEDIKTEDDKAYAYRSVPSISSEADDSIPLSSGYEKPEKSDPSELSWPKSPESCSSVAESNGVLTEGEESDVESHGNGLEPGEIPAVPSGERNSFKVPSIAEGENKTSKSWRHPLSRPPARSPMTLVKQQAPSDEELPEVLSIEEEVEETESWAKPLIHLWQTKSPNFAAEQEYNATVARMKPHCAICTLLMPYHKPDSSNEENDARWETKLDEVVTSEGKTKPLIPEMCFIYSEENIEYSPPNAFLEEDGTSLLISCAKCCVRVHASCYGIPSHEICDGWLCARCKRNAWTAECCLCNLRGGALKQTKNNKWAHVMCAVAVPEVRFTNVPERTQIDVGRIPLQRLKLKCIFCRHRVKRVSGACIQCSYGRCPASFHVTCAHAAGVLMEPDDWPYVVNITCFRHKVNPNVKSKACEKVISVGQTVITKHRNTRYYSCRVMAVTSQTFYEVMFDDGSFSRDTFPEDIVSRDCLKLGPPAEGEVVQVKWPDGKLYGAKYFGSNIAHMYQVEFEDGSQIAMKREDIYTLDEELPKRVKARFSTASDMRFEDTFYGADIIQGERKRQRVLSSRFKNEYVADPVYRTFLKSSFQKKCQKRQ
Nature of the assay: In vitro histone demethylase assay (H3K9me3 by Western blot). The assay is classed as biochemical. Particulars: bulk histones, α-KG 1 mM, 37° C. for 4 hr, various concentrations.

Assay [2] deals with T2, KDM4C (Homo sapiens, UniProt Q9H3R0).
T2 sequence (Q9H3R0 1-1056): T1 sequence (Q9H3R0 1-1056)
Particulars: prior reports (Chowdhury et al., 2011; Lu et al., 2012); cited from earlier work.

Assay [3] deals with SF188 cells. The assay can be described thus: Intracellular 2HG by GC-MS in SF188 cells supplemented with cell-permeable α-KG. Format: cell-based, human. As to conditions: 48 hr, 5 mM dimethyl-α-KG vs vehicle (DMSO). The method, then:
FIG. 2 depicts quantified results of GC-MS histograms showing that hypoxia-induced L-2HG originates from glutamine-derived α-ketoglutarate. Panels in (A and B) are line-drawings showing the fraction of intracellular 2HG labeled by ^13C at the indicated time. Isotope tracing was performed in SF188 cells cultured in medium containing either [U-^13C]glucose or [U-^13C]glutamine. […] Panels in (C) are bar graphs showing normalized 2HG. SF188 cells were cultured for 48 hr in 21% or 0.5% O2 in the presence of vehicle (DMSO) or 5 mM dimethyl-α-KG. Total intracellular 2HG was assessed by GC-MS. […] Representative data from 1 of 3 independent experiments are shown. Panels in (D and E) are GC-MS histograms showing 2HG ions in different conditions. SF188 cells were cultured as in (C), then chiral derivatization of metabolites was performed to allow separation of 2HG enantiomers by GC-MS. Panels in (D) show an overlay of GC-MS histograms for 2HG on the same scale. […]
Metabolites were extracted with 1 mL ice-cold 80% methanol supplemented with 2 micromolar deuterated 2-hydroxyglutarate (D-2-hydroxyglutaric-2,3,3,4,4-d5 acid; deuterated-D-2HG) as an internal standard. […] Samples were analyzed using an Agilent 7890A GC coupled to Agilent 5975C mass selective detector. […] Ions used for quantification of metabolite levels were 2HG m/z 247 and deuterated-2HG m/z 252. […]

Consider `O=C(O)CC[C@H](O)C(=O)O` [L-2HG, L-2-hydroxyglutarate], for which, in assay [1], the “inhibition of KDM4C demethylation of H3K9me3” value is on record as “sensitive to inhibition by L-2HG, in a dose dependent manner”. Moreover, the “inhibition of KDM4C” value in assay [2] is given as “roughly comparable inhibition”. Take `COC(=O)CCC(=O)C(=O)OC` [dimethyl-α-KG, dimethyl alpha-ketoglutarate]: the “increase in intracellular 2HG” value in assay [3] (hypoxia (0.5% O2), confirmed to be L-2HG by chiral derivatization) was around 100 fold; in assay [3] (normoxia (21% O2)) it was “modest increase”. Consider D-2-hydroxyglutarate [D-2HG], for which the “inhibition of KDM4C” value in assay [2] was “roughly comparable inhibition”.
